Assay results from patent US20090137557A1, “Calcilytic Compounds” (priority 2005, published 2009).

Biological target: T1, human calcium receptor (Homo sapiens, UniProt P41180)
T1 construct: expressed in transfected cells; host or cells: HEK 293 4.0-7
T1 sequence (P41180 20-1078): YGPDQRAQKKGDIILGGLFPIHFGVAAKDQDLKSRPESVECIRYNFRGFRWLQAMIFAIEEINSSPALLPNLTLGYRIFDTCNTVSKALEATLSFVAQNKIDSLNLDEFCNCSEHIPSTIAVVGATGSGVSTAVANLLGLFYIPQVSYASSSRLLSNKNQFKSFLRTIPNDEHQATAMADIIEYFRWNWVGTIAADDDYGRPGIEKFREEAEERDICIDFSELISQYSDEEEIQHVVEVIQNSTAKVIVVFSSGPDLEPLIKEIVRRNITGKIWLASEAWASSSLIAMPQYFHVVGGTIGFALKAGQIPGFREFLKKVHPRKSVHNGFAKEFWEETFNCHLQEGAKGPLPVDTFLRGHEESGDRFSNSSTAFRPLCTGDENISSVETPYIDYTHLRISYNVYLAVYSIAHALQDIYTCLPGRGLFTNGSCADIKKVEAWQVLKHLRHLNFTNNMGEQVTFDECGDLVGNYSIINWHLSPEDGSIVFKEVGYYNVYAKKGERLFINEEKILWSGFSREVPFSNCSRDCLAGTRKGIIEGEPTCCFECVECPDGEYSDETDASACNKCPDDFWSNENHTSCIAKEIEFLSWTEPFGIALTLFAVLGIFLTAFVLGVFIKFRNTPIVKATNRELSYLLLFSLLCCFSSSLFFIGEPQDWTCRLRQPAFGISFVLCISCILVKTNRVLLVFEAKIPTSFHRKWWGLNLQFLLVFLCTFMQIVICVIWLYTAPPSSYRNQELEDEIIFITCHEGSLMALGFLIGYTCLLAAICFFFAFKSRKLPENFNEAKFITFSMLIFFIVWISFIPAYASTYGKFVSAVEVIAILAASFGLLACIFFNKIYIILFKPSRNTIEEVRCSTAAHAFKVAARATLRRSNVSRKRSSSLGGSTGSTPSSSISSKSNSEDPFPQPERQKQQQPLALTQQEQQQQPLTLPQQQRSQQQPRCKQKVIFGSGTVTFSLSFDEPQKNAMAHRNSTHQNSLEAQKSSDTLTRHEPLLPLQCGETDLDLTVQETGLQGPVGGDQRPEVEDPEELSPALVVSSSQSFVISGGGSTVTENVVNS
Assay: Calcium Receptor Inhibitor Assay (block of intracellular Ca2+ increase elicited by extracellular Ca2+, fluo-3)
Type: cell-based
Design: key: Compounds having an IC50 greater than 30 uM were considered to be inactive; Compounds having an IC50 greater than 30 uM were considered to be inactive
Conditions: HEK 293 4.0-7 cells stably expressing the human calcium receptor; at the concentrations used
Procedure: (I) Calcium Receptor Inhibitor Assay
Calcilytic activity was measured by determining the IC50 of the test compound for blocking increases of intracellular Ca^2+ elicited by extracellular Ca^2+ in HEK 293 4.0-7 cells stably expressing the human calcium receptor. HEK 293 4.0-7 cells were constructed as described by Rogers et al., J. Bone Miner. Res. 10 Suppl. 1:3483, 1995 (hereby incorporated by reference herein). Intracellular Ca^2+ increases were elicited by increasing extracellular Ca^2+ from 1 to 1.75 mM. Intracellular Ca^2+ was measured using fluo-3, a fluorescent calcium indicator.
The procedure was as follows:
1. Cells were maintained in T-150 flasks in selection media (DMEM supplemented with 10% fetal bovine serum and 200 ug/mL hygromycin B), under 5% CO2:95% air at 37° C. and were grown up to 90% confluency.
2. The medium was decanted and the cell monolayer was washed twice with phosphate-buffered saline (PBS) kept at 37° C. After the second wash, 6 mL of 0.02% EDTA in PBS was added and incubated for 4 minutes at 37° C. Following the incubation, cells were dispersed by gentle agitation.
3. Cells from 2 or 3 flasks were pooled and pelleted (100×g). The cellular pellet was resuspended in 10-15 mL of SPF-PCB+ and pelleted again by centrifugation. This washing was done twice.
Sulfate- and phosphate-free parathyroid cell buffer (SPF-PCB) contains 20 mM Na-Hepes, pH 7.4, 126 mM NaCl, 5 mM KCl, and 1 mM MgCl2. SPF-PCB was made up and stored at 4° C. On the day of use, SPF-PCB was supplemented with 1 mg/mL of D-glucose and 1 mM CaCl2 and then split into two fractions. To one fraction, bovine serum albumin (BSA; fraction V, ICN) was added at 5 mg/mL (SPF-PCB+). This buffer was used for washing, loading and maintaining the cells. The BSA-free fraction was used for diluting the cells in the cuvette for measurements of fluorescence.
4. The pellet was resuspended in 10 mL of SPF-PCB+ containing 2.2 uM fluo-3 (Molecular Probes) and incubated at room temperature for 35 minutes.
5. Following the incubation period, the cells were pelleted by centrifugation. The resulting pellet was washed with SPF-PCB+. After this washing, cells were resuspended in SPF-PCB+ at a density of 1-2×10^6 cells/mL.
6. For recording fluorescent signals, 300 uL of cell suspension were diluted in 1.2 mL of SPF buffer containing 1 mM CaCl2 and 1 mg/mL of D-glucose. Measurements of fluorescence were performed at 37° C. with constant stirring using a spectrofluorimeter. Excitation and emission wavelengths were measured at 485 and 535 nm, respectively. To calibrate fluorescence signals, digitonin (5 mg/mL in ethanol) was added to obtain Fmax, and the apparent Fmin was determined by adding Tris-EGTA (2.5 M Tris-Base, 0.3 M EGTA). The concentration of intracellular calcium was calculated using the following equation:
Intracellular calcium=(F−Fmin/Fmax)×Kd; where Kd=400 nM.
7. To determine the potential calcilytic activity of test compounds, cells were incubated with test compound (or vehicle as a control) for 90 seconds before increasing the concentration of extracellular Ca^2+ from 1 to 2 mM. Calcilytic compounds were detected by their ability to block, in a concentration-dependent manner, increases in the concentration of intracellular Ca^2+ elicited by extracellular Ca^2+.
In general, those compounds having lower IC50 values in the Calcium Receptor Inhibitor Assay are more preferred compounds. […] The present examples were tested except for Examples 11, 20, 28, 44 and 107.

| SMILES | IC50 for blocking increases of intracellular Ca2+ elicited by extracellular Ca2+ (calcilytic activity) |
| --- | --- |
| CNCc1ccc(-c2c(C)nc(-c3ccccc3O)n(CCc3ccccc3)c2=O)s1 [Example 216, 2-(2-hydroxyphenyl)-6-methyl-5-{5-[(methylamino)methyl]-2-thienyl}-3-(2-phenylethyl)-4(3H)-pyrimidinone] | inactive |
| Cc1nc(-c2ccccc2O)n(CCc2ccccc2)c(=O)c1NC(=O)C(C)C [Example 127, N-[2-(2-Hydroxyphenyl)-4-methyl-6-oxo-1-(2-phenylethyl)-1,6-dihydro-5-pyrimidinyl]-2-methylpropanamide] | inactive |
| Cc1nc(-c2ccccc2O)n(CCc2ccccc2)c(=O)c1N [Example 123, 5-Amino-2-(2-hydroxyphenyl)-6-methyl-3-(2-phenylethyl)-4(3H)-pyrimidinone] | inactive |
| CCc1c(N2CCCCC2)nc(-c2cccc(F)c2O)n(CCc2cccc(F)c2)c1=O [Example 27, 5-Ethyl-2-(3-fluoro-2-hydroxyphenyl)-3-[2-(3-fluorophenyl)ethyl]-6-(1-Piperidinyl)-4(3H)-pyrimidinone] | inactive |
| COc1ccccc1-c1nc(C)c(-c2cccs2)c(=O)n1CCc1ccccc1 [Example 100, 6-Methyl-2-[2-(methyloxy)phenyl]-3-(2-phenylethyl)-5-(2-thienyl)-4(3H)-pyrimidinone] | inactive |

Other lines, results leading:

| IC50 for blocking increases of intracellular Ca2+ elicited by extracellular Ca2+ (calcilytic activity) | SMILES |
| --- | --- |
| inactive | Cc1nc(-c2ccccc2O)n(CCc2ccccc2)c(=O)c1-c1ccc(CN)s1 [Example 215, 5-[5-(Aminomethyl)-2-thienyl]-2-(2-hydroxyphenyl)-6-methyl-3-(2-phenylethyl)-4(3H)-pyrimidinone] |
| inactive | Cc1nc(-c2ccccc2O)n(CCc2ccccc2)c(=O)c1-c1ccc(-c2nnn[nH]2)s1 [Example 214, 2-(2-hydroxyphenyl)-6-methyl-3-(2-phenylethyl)-5-[5-(1H-tetrazol-5-yl)-2-thienyl]-4(3H)-pyrimidinone] |
| inactive | CCc1c(CCC2CCCCC2)nc(-c2cccc(F)c2O)n(CCc2ccccc2F)c1=O [Example 46] |
